According to paper PMC11413854, “Reversible Control of Native GluN2B-Containing NMDA Receptors with Visible Light” (ACS Chemical Neuroscience, 2024):
Read-outs that look alike come from different tables or passages of the source.

Biological target: T1, GluN1/GluN2B NMDA receptors (UniProt P35439+Q01097)
T1 construct: expressed in transfected cells; host or cells: Xenopus laevis oocytes (nuclear cDNA injection)
Experiment: TEVC electrophysiology on Xenopus oocytes expressing wt GluN1/GluN2B NMDARs
Format: cell-based, rat GluN1, mouse GluN2B
Details: for remaining activity at 2 µM / remaining activity at 7.5 µM / remaining activity at 10 µM / remaining activity at 25 µM / remaining activity at 70 µM: GluN1/GluN2B wt, read-out: Relative current (IOpto/I0)
Text: The activity of OptoNAM-3 was functionally monitored by electrophysiology on Xenopus oocytes (see Methods). To assess the light-dependent effect, we tested the activities of the dark PSS (mostly trans) and the UV PSS (mostly cis, see above) separately. For each concentration, we prepared a solution divided into two samples: one in which the compound was kept in the dark for the duration of the experiment (dark PSS state); and the other that was preilluminated with either 350 or 365 nm light (350 or 365 nm PSS) and then kept away from the light for the duration of the experiment in order to avoid photoisomerization of the compounds by ambient light (see Methods). […] We generated dose–response curves of OptoNAM-3 dark and UV PSS on wild-type (wt) GluN1/GluN2B NMDA receptors (Figure 3A) in the presence of saturating concentrations of agonists (100 μM glutamate and glycine).
We used cDNA coding for rat GluN1–1a (named GluN1 herein) (GenBank: U08261.1), rat GluN2A (GenBank: D13211.1), mouse GluN2B (GenBank: D10651.2), rat GluA1 flop (GenBank: M36418.2), and rat Myc-GluA2(Q)-flip (GenBank: AF164344.1) cloned into pcDNA3-based expression plasmids. GluK2 (GenBank: Z11548.1) corresponds to the fully RNA-edited version.[80] The GluN2B-ΔNTD construct is from ref[45] and GluN2B–N615K is from ref[81]. Single mutants GluN2B-Q110G and GluN1-L135H were from ref[19]. The GluA2 cDNA contains a Myc tag ([…]) fused between the signal peptide and the N-terminus sequences, and the GluA2 subunit is […] for its Q/R/N site (GluA2(Q)) to allow permeation of homomeric GluA2 receptors.[2] cDNAs coding for rat GluN2C (GenBank: M91563.1) and GluN2D subunits (GenBank: L31611.1) were in prK5 plasmids.
Oocytes from Xenopus laevis were used for heterologous expression of recombinant NMDA receptors studied using a two-electrode voltage clamp (TEVC). Female Xenopus laevis were housed and ovary bags harvested according to the European Union guidelines (husbandry authorizations #C75–05–31 and #D75–05–31; project authorizations #05137.02; and Apafis #28867–2020121814485893). Fragments of ovary bags were also purchased from the “Centre de Ressources Biologiques Xenopes” (now TEFOR, Paris Saclay, France) and from the European Xenopus Resource Center (EXRC, Portsmouth, UK). Xenopus laevis oocytes were harvested and prepared as previously described in ref[82].
Expression of recombinant NMDA receptors was obtained by oocyte nuclear coinjection of 37 nL of a mixture of cDNAs (at 30 ng/μL) coding for GluN1–1a and various GluN2 subunits (ratio 1:1). The protocol in ref[43] was followed for the expression of GluN1/GluN2A/GluN2B triheteromers. The oocytes were transferred in 96-well plates filled with Barth solution (in mM: 88 NaCl, 1 KCl, 0.33 Ca(NO3)2, 0.41 CaCl2, 0.82 MgSO4, 2.4 NaHCO3, and 7.5 HEPES, pH adjusted to 7.3 with NaOH), supplemented with gentamicin ([…]) and 50 μM APV, a selective NMDA receptor antagonist. Plates were then stored at 18 °C for 24 h for GluN1/GluN2A expression and for 48––72 h for the expression of GluN1/Glu2B, GluN1/GluN2A/GluN2B, and mutants.
TEVC recordings were performed 1–3 days following injection. TEVC recordings were performed using an Oocyte Clamp amplifier OC-725 (Warner Instruments) and computer-controlled via a 1440A Digidata (Molecular Devices). Currents were sampled at 100 Hz and low-pass-filtered at 20 Hz using an 8-pole Bessel filter (900 Series, Frequency Devices Inc.).

T1 sequence (Q01097 27-1482, other chains not shown): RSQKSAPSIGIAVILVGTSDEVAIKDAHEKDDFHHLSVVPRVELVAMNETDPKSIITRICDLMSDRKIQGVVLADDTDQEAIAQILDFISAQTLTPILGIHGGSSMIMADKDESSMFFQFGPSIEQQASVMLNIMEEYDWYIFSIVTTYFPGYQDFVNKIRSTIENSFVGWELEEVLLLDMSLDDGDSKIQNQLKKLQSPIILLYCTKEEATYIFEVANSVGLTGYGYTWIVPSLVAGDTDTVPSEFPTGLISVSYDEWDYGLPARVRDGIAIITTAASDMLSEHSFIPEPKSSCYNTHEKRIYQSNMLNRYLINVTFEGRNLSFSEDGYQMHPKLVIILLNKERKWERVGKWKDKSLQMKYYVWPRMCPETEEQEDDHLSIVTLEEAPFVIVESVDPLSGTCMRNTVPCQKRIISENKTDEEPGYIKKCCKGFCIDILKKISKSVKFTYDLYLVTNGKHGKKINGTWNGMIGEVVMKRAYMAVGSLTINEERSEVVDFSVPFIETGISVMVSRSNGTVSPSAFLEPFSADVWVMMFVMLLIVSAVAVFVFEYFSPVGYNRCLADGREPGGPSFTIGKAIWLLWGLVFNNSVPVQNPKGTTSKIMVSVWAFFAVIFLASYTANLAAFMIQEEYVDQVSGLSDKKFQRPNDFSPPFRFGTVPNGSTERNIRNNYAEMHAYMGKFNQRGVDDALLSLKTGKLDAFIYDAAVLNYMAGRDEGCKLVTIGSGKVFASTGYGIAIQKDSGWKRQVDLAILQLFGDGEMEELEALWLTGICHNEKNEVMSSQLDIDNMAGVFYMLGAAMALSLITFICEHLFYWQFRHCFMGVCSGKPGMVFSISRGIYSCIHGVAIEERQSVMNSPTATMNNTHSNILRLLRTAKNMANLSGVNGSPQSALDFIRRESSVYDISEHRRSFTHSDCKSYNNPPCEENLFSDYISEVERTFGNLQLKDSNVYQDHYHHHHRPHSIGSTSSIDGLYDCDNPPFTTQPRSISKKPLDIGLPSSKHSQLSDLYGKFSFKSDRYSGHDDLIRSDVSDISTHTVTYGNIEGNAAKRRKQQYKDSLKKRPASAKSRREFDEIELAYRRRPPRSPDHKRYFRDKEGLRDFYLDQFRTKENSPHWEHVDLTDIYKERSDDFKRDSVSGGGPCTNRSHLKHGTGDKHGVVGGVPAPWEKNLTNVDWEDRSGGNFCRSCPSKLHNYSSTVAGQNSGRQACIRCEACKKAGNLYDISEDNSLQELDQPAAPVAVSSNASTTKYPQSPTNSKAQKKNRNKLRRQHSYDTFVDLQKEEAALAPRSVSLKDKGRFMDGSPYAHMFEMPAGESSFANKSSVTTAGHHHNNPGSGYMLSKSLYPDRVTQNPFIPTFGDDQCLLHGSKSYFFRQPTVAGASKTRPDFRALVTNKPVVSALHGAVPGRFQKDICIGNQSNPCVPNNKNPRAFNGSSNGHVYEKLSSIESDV

- IC50 (365 nm PSS, 100 µM glutamate + glycine, Xenopus oocytes, read-out: IC50 on GluN1/GluN2B receptors, preilluminated with 365 nm): 37 ± 2 µM
- remaining activity at 2 µM (365 nm PSS): 91.1%
- remaining activity at 7.5 µM (365 nm PSS): 81.8%
- remaining activity at 10 µM (365 nm PSS): 78%
- remaining activity at 25 µM (365 nm PSS): 58.1%
- remaining activity at 70 µM (365 nm PSS): 35%
- remaining activity at 2 µM (dark PSS (trans)): 83.8%
- remaining activity at 7.5 µM (dark PSS (trans)): 66.1%
- remaining activity at 10 µM (dark PSS (trans)): 49.9%
- remaining activity at 25 µM (dark PSS (trans)): 28.4%
- remaining activity at 70 µM (dark PSS (trans)): 13.4%
- IC50 (Sup. Fig. 2G, trans isomer, source: this paper, read-out: activity (Ki or IC50)): 11 µM
- UV/dark IC50 ratio (365 nm PSS vs dark) (preilluminated in solution, Xenopus oocytes): 3.4 fold
- shift in IC50 compared to parent compound (trans configuration (dark)): > 1000 fold
SMILES: Nc1ccnc(/N=N/c2ccccc2)c1 [OptoNAM-1, (E)-2-(phenyldiazenyl)pyridin-4-amine]
